The results in this text go back to patent publication US10071957B2, “N-substituted benzamides and methods of use thereof” (GENENTECH, INC., priority 2012, dated 2018).

Molecules are shown by their SMILES.

hNaV1.7, sequence (Q15858 whole entry, looked up): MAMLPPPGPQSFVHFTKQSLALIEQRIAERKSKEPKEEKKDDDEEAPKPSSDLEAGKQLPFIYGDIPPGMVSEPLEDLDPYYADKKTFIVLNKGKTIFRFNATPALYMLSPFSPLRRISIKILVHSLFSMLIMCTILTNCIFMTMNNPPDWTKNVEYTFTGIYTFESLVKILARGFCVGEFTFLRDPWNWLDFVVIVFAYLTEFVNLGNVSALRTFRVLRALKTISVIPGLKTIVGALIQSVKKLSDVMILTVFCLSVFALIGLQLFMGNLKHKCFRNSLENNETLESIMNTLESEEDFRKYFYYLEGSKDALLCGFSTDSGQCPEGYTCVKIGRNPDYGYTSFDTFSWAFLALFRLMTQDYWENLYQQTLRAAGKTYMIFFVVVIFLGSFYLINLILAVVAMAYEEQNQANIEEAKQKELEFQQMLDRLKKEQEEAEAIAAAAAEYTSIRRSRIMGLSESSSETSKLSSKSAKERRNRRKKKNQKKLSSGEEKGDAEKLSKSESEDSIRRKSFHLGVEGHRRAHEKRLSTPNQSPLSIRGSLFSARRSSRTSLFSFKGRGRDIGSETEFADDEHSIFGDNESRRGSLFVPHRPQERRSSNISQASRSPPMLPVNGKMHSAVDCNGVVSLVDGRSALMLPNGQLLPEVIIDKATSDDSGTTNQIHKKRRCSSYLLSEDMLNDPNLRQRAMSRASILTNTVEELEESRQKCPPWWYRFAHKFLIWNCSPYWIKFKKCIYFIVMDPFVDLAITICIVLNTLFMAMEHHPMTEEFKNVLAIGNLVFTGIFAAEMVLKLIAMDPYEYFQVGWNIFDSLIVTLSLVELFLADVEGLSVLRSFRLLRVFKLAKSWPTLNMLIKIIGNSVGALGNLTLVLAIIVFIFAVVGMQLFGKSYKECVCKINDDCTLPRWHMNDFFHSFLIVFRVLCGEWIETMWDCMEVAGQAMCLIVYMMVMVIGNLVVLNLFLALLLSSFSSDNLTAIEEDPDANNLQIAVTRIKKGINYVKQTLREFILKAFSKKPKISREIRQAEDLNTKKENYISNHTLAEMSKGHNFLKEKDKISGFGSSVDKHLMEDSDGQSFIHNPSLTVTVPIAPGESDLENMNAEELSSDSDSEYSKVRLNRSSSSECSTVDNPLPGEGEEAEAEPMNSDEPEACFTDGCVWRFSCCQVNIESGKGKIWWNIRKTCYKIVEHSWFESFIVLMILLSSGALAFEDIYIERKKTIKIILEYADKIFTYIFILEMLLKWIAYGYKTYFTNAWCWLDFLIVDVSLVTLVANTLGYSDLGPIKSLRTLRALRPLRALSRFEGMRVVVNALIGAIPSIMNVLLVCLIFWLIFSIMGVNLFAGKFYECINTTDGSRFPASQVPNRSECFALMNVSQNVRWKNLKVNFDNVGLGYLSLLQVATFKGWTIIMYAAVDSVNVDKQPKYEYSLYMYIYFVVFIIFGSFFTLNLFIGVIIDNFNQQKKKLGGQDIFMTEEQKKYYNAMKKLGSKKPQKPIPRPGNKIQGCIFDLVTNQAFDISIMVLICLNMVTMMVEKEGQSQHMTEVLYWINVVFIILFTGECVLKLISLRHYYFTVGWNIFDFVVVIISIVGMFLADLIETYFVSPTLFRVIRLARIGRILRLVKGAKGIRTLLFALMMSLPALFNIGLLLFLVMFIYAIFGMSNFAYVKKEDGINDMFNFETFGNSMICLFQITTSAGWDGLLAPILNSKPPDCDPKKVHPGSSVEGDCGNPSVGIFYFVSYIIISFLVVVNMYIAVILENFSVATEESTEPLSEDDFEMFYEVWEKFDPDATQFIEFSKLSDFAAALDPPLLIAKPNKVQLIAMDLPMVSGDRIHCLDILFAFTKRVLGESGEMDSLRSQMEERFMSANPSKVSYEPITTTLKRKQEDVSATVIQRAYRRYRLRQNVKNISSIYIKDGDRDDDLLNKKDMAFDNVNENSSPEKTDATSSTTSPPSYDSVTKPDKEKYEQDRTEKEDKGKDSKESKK
hNaV1.7, sequence (Q07699 whole entry partner, looked up): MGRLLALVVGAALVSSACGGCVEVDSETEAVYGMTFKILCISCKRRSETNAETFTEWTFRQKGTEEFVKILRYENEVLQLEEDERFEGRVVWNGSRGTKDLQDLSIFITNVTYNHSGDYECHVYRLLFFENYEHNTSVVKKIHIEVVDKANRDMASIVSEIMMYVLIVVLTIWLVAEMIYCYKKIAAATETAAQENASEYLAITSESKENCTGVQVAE

This test concerns the target hNaV1.7 (Homo sapiens (Human), UniProt Q15858). The test is described as follows: Competitive binding of tritiated compound to membranes from cells expressing hNav1.7 and the β1 subunit. The following applies: 100 pM [3H]compound, 18 h, room temperature; read-out: NaV1.7 395 Membrane Binding IC50. The method, then: Tritiated compound binding to membranes isolated from cells that heterologously express hNav1.7 and the β1 subunit
Preparation of membranes containing recombinantly expressed sodium channels: Frozen recombinant cell pellets were thawed on ice and diluted to 4 times the cell pellet weight with ice cold 50 mM Tris HCl, pH 7.4 buffer. The cell suspensions were homogenized on ice using a motorized glass dounce homogeniser. Homogenates were further diluted 8.4 times with ice cold 50 mM Tris HCl, pH 7.4 buffer and then centrifuged at 200×g at 4° C. for 15 min. The supernatants were collected and centrifuged at 10000×g at 4° C. for 50 min. The pellets were then re-suspended in 100 mM NaCl, 20 mM Tris HCl, pH 7.4 buffer containing 1% v/v protease inhibitors (Calbiochem) and re-homogenized on ice. The homogenized membranes were then processed through a syringe equipped with a 26 gauge needle. Protein concentrations were determined by Bradford Assay and the membranes were stored at −80° C.
Radioligand Binding Studies: Saturation experiments. A representative compound of formula (I) was tritiated. Three tritiums were incorporated in place of methyl hydrogens to generate [^3H]compound. Binding of this radioligand was performed in 5 mL borosilicate glass test tubes at room temperature. Binding was initiated by adding membranes to increasing concentrations of [^3H]compound in 100 mM NaCl, 20 mM Tris HCl, pH 7.4 buffer containing 0.01% w/v bovine serum albumin (BSA) for 18 h. Non-specific binding was determined in the presence of 1 μM unlabelled compound. After 18 h, the reactants were filtered through GF/C glass fiber filters presoaked in 0.5% w/v polyethylene imine. Filters were washed with 15 mL ice cold 100 mM NaCl, 20 mM Tris HCl, pH 7.4 buffer containing 0.25% BSA to separate bound from free ligand. [^3H]compound bound to filters was quantified by liquid scintillation counting.
Competitive binding experiments. Binding reactions were performed in 96-well polypropylene plates at room temperature for 18 h. In 360 μL, membranes were incubated with 100 pM [^3H]compound and increasing concentrations of Test Compound. Non-specific binding was defined in the presence of 1 μM unlabelled compound. Reactions were transferred and filtered through 96-well glass fiber/C filter plates presoaked with 0.5% polyethylene imine. The filtered reactions were washed 5 times with 200 μL ice cold buffer containing 0.25% BSA. Bound radioactivity was determined by liquid scintillation counting.
Data Analysis: For saturation experiments, non-specific binding was subtracted from total binding to provide specific binding and these values were recalculated in terms of pmol ligand bound per mg protein. Saturation curves were constructed and dissociation constants were calculated using the single site ligand binding model: Beq=(Bmax*X)/(X+Kd), where Beq is the amount of ligand bound at equilibrium, Bmax is the maximum receptor density, Kd is the dissociation constant for the ligand, and X is the free ligand concentration. For competition studies percent inhibition was determined and IC50 values were calculated using a 4 parameter logistic model (% inhibition=(A+((B−A)/(1+((x/C)^D)))) using XLfit, where A and B are the maximal and minimum inhibition respectively, C is the IC50 concentration and D is the (Hill) slope.
For the compound `COc1ccc(CCOc2cc(F)c(C(=O)NS(=O)(=O)N(C)C)cc2Cl)cc1` [Preparation 57, 5-chloro-N-(N,N-dimethylsulfamoyl)-2-fluoro-4-(4-methoxy-phenethoxy)benzamide], the IC50 (commonly the concentration that inhibits the measured activity by half) was determined as 2400 nM.

Regarding `CN(C)S(=O)(=O)NC(=O)c1cc(Cl)c(OCCc2ccccc2)cc1F` [Preparation 58, 5-chloro-N-(N,N-dimethylsulfamoyl)-2-fluoro-4-phenethoxy-benzamide], the IC50 was 1300 nM.

Take `Cc1cc2cc(Oc3cc(F)c(C(=O)NS(=O)(=O)N(C)C)cc3Cl)ccc2[nH]1` [Preparation 59, 5-chloro-N-(N,N-dimethylsulfamoyl)-2-fluoro-4-((2-methyl-1H-indol-5-yl)oxy) benzamide]: the IC50 was found to be 5200 nM.

As for `CN(C)S(=O)(=O)NC(=O)c1cc(Cl)c(Oc2cccc3cnccc23)cc1F` [Preparation 60, 5-chloro-N-(N,N-dimethylsulfamoyl)-2-fluoro-4-(isoquinolin-5-yloxy)benzamide], the IC50 came to 20000 nM.

On to `CN(C)S(=O)(=O)NC(=O)c1cc(Cl)c(Oc2ccc(S(C)(=O)=O)cc2)cc1F` [Preparation 61, 5-chloro-N-(N,N-dimethylsulfamoyl)-2-fluoro-4-(4-(methyl-sulfonyl)phenoxy) benzamide], for which the IC50 came to 20000 nM.

In the case of `CN(C)S(=O)(=O)NC(=O)c1cc(Cl)c(Oc2ccc3cnn(C)c3c2)cc1F` [Preparation 62, 5-chloro-N-(N,N-dimethylsulfamoyl)-2-fluoro-4-((1-methyl-1H-indazol-6-yl)oxy) benzamide], the half-maximal inhibitory concentration (IC50) was found to be 14000 nM.

Take `CN(C)S(=O)(=O)NC(=O)c1cc(Cl)c(Oc2cnc(N3CCCCC3)c(Cl)c2)cc1F` [Preparation 63, 5-chloro-4-((5-chloro-6-(piperidin-1-yl)pyridin-3-yl)oxy)-N-(N,N-dimethyl-sulfamoyl)-2-fluoro-benzamide]: the IC50 is 140 nM.

On to `Cc1nc2ccc(Oc3cc(F)c(C(=O)NS(=O)(=O)N(C)C)cc3Cl)cc2s1` [Preparation 64, 5-chloro-N-(N,N-dimethylsulfamoyl)-2-fluoro-4-((2-methyl-benzo[d]thiazol-6-yl)oxy)benzamide], for which the IC50 was 1900 nM.

In the case of `CC(C)COc1ncc(Oc2cc(F)c(C(=O)NS(=O)(=O)N(C)C)cc2C#N)cc1Cl` [Preparation 65, 4-((5-chloro-6-iso-butoxypyridin-3-yl)oxy)-5-cyano-N-(N,N-dimethylsulfamoyl)-2-fluorobenzamide], the IC50 amounted to 93 nM.

In the case of `O=C(NS(=O)(=O)N1CCCC1)c1cc(Cl)c(Oc2cnc(OCC(F)(F)C(F)F)c(Cl)c2)cc1F` [Preparation 66, 5-chloro-4-((5-chloro-6-(2,2,3,3-tetrafluoro-propoxy)pyridin-3-yl)oxy)-2-fluoro-N-(pyrrolidin-1-ylsulfonyl)benzamide], the IC50 turned out to be 26 nM.

For `O=C(NS(=O)(=O)c1cccnc1)c1cc(Cl)c(Oc2cnc(OCC(F)(F)C(F)F)c(Cl)c2)cc1F` [Preparation 69, 5-chloro-4-((5-chloro-6-(2,2,3,3-tetrafluoro-propoxy)pyridin-3-yl)oxy)-2-fluoro-N-(pyridin-3-ylsulfonyl) benzamide], the IC50 is 950 nM.

Consider `CN(C)S(=O)(=O)NC(=O)c1cc(Cl)c(Oc2cc(OC(F)(F)F)ccc2F)cc1F` [Preparation 70, 5-chloro-N-(N,N-dimethylsulfamoyl)-2-fluoro-4-(2-fluoro-5-(trifluoromethoxy)phenoxy)benzamide], for which the IC50 was 340 nM.

As for `CN(C)S(=O)(=O)NC(=O)c1cc(Cl)c(Oc2cccc3ncccc23)cc1F` [Preparation 71, 5-chloro-N-(N,N-dimethylsulfamoyl)-2-fluoro-4-(quinolin-5-yloxy)benzamide], the half-maximal inhibitory concentration (IC50) turned out to be 20000 nM.

Take `CN(C)S(=O)(=O)NC(=O)c1cc(Cl)c(Oc2ccc3ncccc3c2)cc1F` [Preparation 72, 5-chloro-N-(N,N-dimethylsulfamoyl)-2-fluoro-4-(quinolin-6-yloxy)benzamide]: the IC50 worked out at 9600 nM.

With `CN(C)S(=O)(=O)NC(=O)c1cc(Cl)c(Oc2ccc3ccncc3c2)cc1F` [Preparation 73, 5-chloro-N-(N,N-dimethylsulfamoyl)-2-fluoro-4-(isoquinolin-7-yloxy)benzamide], the concentration for half-maximal inhibition (IC50) stood at 20000 nM.

`Cc1cc(Oc2cc(F)c(C(=O)NS(=O)(=O)N(C)C)cc2Cl)cc(C)c1C#N` [Preparation 74, 5-chloro-4-(4-cyano-3,5-dimethylphenoxy)-N-(N,N-dimethyl-sulfamoyl)-2-fluoro-benzamide]: the IC50 was 11000 nM.

Consider `CC(C)COc1ncc(Oc2cc(F)c(C(=O)NS(N)(=O)=O)cc2C#N)cc1Cl` [Preparation 75, 4-((5-chloro-6-iso-butoxypyridin-3-yl)oxy)-5-cyano-2-fluoro-N-sulfamoyl-benzamide], for which the IC50 was found to be 290 nM.

On to `CNS(=O)(=O)NC(=O)c1cc(Cl)c(COc2cnc(OC(C)C)c(Cl)c2)cc1F` [Preparation 77], for which the IC50 was 140 nM.

On to `CNS(=O)(=O)NC(=O)c1cc(Cl)c(COc2ccc(Cl)c(C(F)(F)F)c2)cc1F` [Preparation 78], for which the IC50 worked out at 35 nM.

On to `O=C(NS(=O)(=O)N1CCC1)c1cc(Cl)c(COc2ccc(OC(F)(F)F)c(Cl)c2)cc1F` [Preparation 79], for which the IC50 is 17 nM.

For the compound `O=C(NS(=O)(=O)N1CCC1)c1ccc(Oc2ccc(OC(F)(F)F)c(Cl)c2)c(C2(O)COC2)c1` [Preparation 81], the IC50 came out at 20200 nM.

Take `CNS(=O)(=O)NC(=O)c1ccc(Oc2cnc(OC(C)C)c(Cl)c2)c(-c2cccnc2OC)c1` [Preparation 83]: the IC50 was 43 nM.

On to `O=C(NS(=O)(=O)N1CCC1)c1cc(Cl)c(COc2ccc(Cl)c(C(F)(F)F)c2)cc1F` [Preparation 85], for which the IC50 is 26 nM.

In the case of `CC(C)Oc1ncc(Oc2cc(F)c(C(=O)NS(=O)(=O)N3CCC3)cc2C2(F)COC2)cc1Cl` [Preparation 88], the IC50 came to 44 nM.

With `CC(C)Oc1ncc(Oc2cc(F)c(C(=O)NS(=O)(=O)N3CCC3)cc2C2(O)COC2)cc1Cl` [Preparation 89], the IC50 is 1300 nM.

Consider `CNS(=O)(=O)NC(=O)c1cc(C2CC2)c(Oc2cnc(OC(C)C)c(Cl)c2)cc1F` [Preparation 90], for which the half-maximal inhibitory concentration (IC50) stood at 6 nM.

`O=C(NS(=O)(=O)N1CCC1)c1cc(Cl)c(Oc2cnc(OCC(F)(F)F)c(Cl)c2)cc1F` [Preparation 93]: the IC50 was determined as 16 nM.

In the case of `O=C(NS(=O)(=O)N1CCC1)c1cc(C2CC2)c(Oc2cnc(OCC(F)(F)F)c(Cl)c2)cc1F` [Preparation 94], the IC50 was determined as 9 nM.

Take `O=C(NS(=O)(=O)N1CCC1)c1cc(C2CC2)c(COc2cc(Cl)cc(OC(F)(F)F)c2)cc1F` [Preparation 95]: the IC50 worked out at 2 nM.

Regarding `O=C(NS(=O)(=O)N1CCC1)c1cc(C2CC2)c(COc2cc(Cl)cc(Cl)c2)cc1F` [Preparation 96], the IC50 was found to be 0.3 nM.

Consider `COc1ncccc1-c1cc(C(=O)NS(=O)(=O)N2CCC2)ccc1Oc1ccc(OC(F)(F)F)c(Cl)c1` [Preparation 97], for which the IC50 turned out to be 52 nM.

On to `O=C(NS(=O)(=O)N1CCC1)c1cc(C2CC2)c(COc2ccc(Cl)c(Cl)c2)cc1F` [Preparation 98], for which the IC50 turned out to be 9 nM.

Take `O=C(NS(=O)(=O)N1CCC1)c1cc(Cl)c(COc2ccc(Cl)c(Cl)c2)cc1F` [Preparation 99]: the IC50 was 51 nM.

For `CNS(=O)(=O)NC(=O)c1cc(Cl)c(COc2ccc(OC(F)(F)F)c(Cl)c2)cc1F` [Preparation 100], the IC50 worked out at 43 nM.
